What was measured:
MAGL = MAGL (Mus musculus (Mouse), UniProt O35678); experiment: In vitro competitive activity-based protein profiling, MAGL (mouse); type: biochemical; settings: for inhibition at 1 µM: read-out: MAGL % inh. 1 μM (mouse)
Summary of the method: (§1)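 Residual MAGL and FAAH activity quantified from fluorescent gel bands after SDS-PAGE. Before that, FP-Rh or HT-01 probe (50 μM stock) labelled for 30 min at 37 °C, following 30 min inhibitor preincubation. Mouse assays used brain membrane fraction or cell lysates, human used prefrontal cortex or cell membranes, all at 1.0 mg/mL protein.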

FAAH = FAAH (Mus musculus (Mouse), UniProt O08914); experiment: In vitro competitive activity-based protein profiling, FAAH (mouse); type: biochemical; settings: for inhibition at 1 µM: read-out: FAAH % inh. 1 μM (mouse)
FAAH, sequence (O08914 whole entry): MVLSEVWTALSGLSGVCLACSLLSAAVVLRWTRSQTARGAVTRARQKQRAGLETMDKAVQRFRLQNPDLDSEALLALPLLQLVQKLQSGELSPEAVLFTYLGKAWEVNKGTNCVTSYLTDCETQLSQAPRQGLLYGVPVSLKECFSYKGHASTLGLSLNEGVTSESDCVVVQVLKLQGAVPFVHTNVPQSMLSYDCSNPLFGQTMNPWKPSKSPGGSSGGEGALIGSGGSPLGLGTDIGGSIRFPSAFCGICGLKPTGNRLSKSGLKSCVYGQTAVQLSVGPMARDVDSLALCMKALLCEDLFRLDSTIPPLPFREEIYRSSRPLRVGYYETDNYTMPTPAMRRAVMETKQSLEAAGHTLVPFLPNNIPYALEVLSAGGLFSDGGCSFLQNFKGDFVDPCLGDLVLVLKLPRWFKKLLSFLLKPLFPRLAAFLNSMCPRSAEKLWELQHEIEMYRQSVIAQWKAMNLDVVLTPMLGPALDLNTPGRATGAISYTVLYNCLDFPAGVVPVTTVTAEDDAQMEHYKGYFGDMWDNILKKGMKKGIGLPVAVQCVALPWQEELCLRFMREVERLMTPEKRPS
Summary of the method: as §1

MAGL, sequence (O35678 whole entry): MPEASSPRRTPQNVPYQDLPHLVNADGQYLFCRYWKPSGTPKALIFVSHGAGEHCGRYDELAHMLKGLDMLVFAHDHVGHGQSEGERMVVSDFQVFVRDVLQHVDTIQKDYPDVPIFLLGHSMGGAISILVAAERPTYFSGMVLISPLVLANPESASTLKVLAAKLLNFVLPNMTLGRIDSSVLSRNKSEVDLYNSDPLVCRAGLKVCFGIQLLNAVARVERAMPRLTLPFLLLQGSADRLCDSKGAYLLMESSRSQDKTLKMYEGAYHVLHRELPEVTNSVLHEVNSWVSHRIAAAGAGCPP

Row | Structure (SMILES) | inhibition at 1 µM (MAGL) [%] | inhibition at 1 µM (FAAH) [%] | IC50 (MAGL) [nM] | IC50 (FAAH) [nM]
1 | CC(=O)N(C)c1cnn(C(=O)N2CC3CN(Cc4cc(C(F)(F)F)ccc4N4CCCC4)CC3C2)c1 (centres unmarked) [Example 128, N-methyl-N-(1-(5-(2-(pyrrolidin-1-yl)-5-(trifluoromethyl)benzyl)octahydropyrrolo[3,4-c]pyrrole-2-carbonyl)-1H-pyrazol-4-yl)acetamide] | ≥ 75 | ≥ 75 |  | 
2 | CC(=O)N(C)c1cnn(C(=O)N2CC3CN(Cc4ccc(Cl)c(N5CCOCC5)c4)CC3C2)c1 (centres unmarked) [Example 129, N-(1-(5-(4-chloro-3-morpholinobenzyl)octahydropyrrolo[3,4-c]pyrrole-2-carbonyl)-1H-pyrazol-4-yl)-N-methylacetamide] | ≥ 75 | ≥ 75 |  | 
3 | CC(=O)N(C)c1cnn(C(=O)N2CC3CN(Cc4ccc(C(F)(F)F)c(N5CCCC5)c4)CC3C2)c1 (centres unmarked) [Example 130, N-methyl-N-(1-(5-(3-(pyrrolidin-1-yl)-4-(trifluoromethyl)benzyl)octahydropyrrolo[3,4-c]pyrrole-2-carbonyl)-1H-pyrazol-4-yl)acetamide] | ≥ 75 | ≥ 75 | ≤ 100 | ≤ 100
4 | CC(=O)N(C)c1cnn(C(=O)N2CC3CN(Cc4ccc(N5CCOCC5)cc4C(F)(F)F)CC3C2)c1 (centres unmarked) [Example 131, N-methyl-N-(1-(5-(4-morpholino-2-(trifluoromethyl)benzyl)octahydropyrrolo[3,4-c]pyrrole-2-carbonyl)-1H-pyrazol-4-yl)acetamide] | ≥ 75 | ≥ 75 | ≤ 100 | ≤ 100
5 | CC(=O)N(C)c1cnn(C(=O)N2CC3CN(Cc4ccc(N5CCCC5)cc4Cl)CC3C2)c1 (centres unmarked) [Example 132, N-(1-(5-(2-chloro-4-(pyrrolidin-1-yl)benzyl)octahydropyrrolo[3,4-c]pyrrole-2-carbonyl)-1H-pyrazol-4-yl)-N-methylacetamide] | ≥ 75 | ≥ 75 |  | 
6 | CC(=O)N(C)c1cnn(C(=O)N2C[C@H]3C[C@@H](NCc4ccccc4Cl)C[C@H]3C2)c1 [Example 133, N-(1-(cis-5-(2-chlorobenzylamino)octahydrocyclopenta[c]pyrrole-2-carbonyl)-1H-pyrazol-4-yl)-N-methylacetamide] | 25 to 50 | ≥ 75 |  | 
7 | CC(=O)N(C)c1cnn(C(=O)N2C[C@H]3C[C@@H](NCc4ccc(Cl)cc4)C[C@H]3C2)c1 [Example 135, N-(1-(cis-5-(4-chlorobenzylamino)octahydrocyclopenta[c]pyrrole-2-carbonyl)-1H-pyrazol-4-yl)-N-methylacetamide] | ≥ 75 | ≥ 75 |  | 
8 | CC(=O)N(C)c1cnn(C(=O)N2C[C@H]3C[C@H](NCc4ccccc4Cl)C[C@H]3C2)c1 [Example 136, N-(1-(trans-5-(2-chlorobenzylamino)octahydrocyclopenta[c]pyrrole-2-carbonyl)-1H-pyrazol-4-yl)-N-methylacetamide] | ≥ 75 | ≥ 75 | 100 to 1000 | 100 to 1000
9 | CC(=O)N(C)c1cnn(C(=O)N2C[C@H]3C[C@H](NCc4cccc(Cl)c4)C[C@H]3C2)c1 [Example 137, N-(1-(trans-5-(3-chlorobenzylamino)octahydrocyclopenta[c]pyrrole-2-carbonyl)-1H-pyrazol-4-yl)-N-methylacetamide] | ≥ 75 | ≥ 75 | 100 to 1000 | 100 to 1000
10 | CC(=O)N(C)c1cnn(C(=O)N2C[C@H]3C[C@H](NCc4ccc(Cl)cc4)C[C@H]3C2)c1 [Example 138, N-(1-(trans-5-(4-chlorobenzylamino)octahydrocyclopenta[c]pyrrole-2-carbonyl)-1H-pyrazol-4-yl)-N-methylacetamide] | ≥ 75 | ≥ 75 |  | 
11 | CC(=O)N(C)c1cnn(C(=O)N2C[C@H]3C[C@@H](N(C)Cc4ccccc4Cl)C[C@H]3C2)c1 [Example 139, N-(1-(cis-5-((2-chlorobenzyl)(methyl)amino)octahydrocyclopenta[c]pyrrole-2-carbonyl)-1H-pyrazol-4-yl)-N-methylacetamide] | 25 to 50 | ≥ 75 | 1000 to 10000 | 100 to 1000
12 | CC(=O)N(C)c1cnn(C(=O)N2C[C@H]3C[C@@H](N(C)Cc4cc(C(F)(F)F)ccc4C(F)(F)F)C[C@H]3C2)c1 [Example 140, N-(1-(cis-5-((2,5-bis(trifluoromethyl)benzyl)(methyl)amino)octahydrocyclopenta[c]pyrrole-2-carbonyl)-1H-pyrazol-4-yl)-N-methylacetamide] | ≥ 75 | ≥ 75 |  | 
13 | CC(=O)N(C)c1cnn(C(=O)N2C[C@H]3C[C@@H](N(C)Cc4cccc(Cl)c4)C[C@H]3C2)c1 [Example 141, N-(1-(cis-5-((3-chlorobenzyl)(methyl)amino)octahydrocyclopenta[c]pyrrole-2-carbonyl)-1H-pyrazol-4-yl)-N-methylacetamide] | 50 to 75 | ≥ 75 | 100 to 1000 | ≤ 100
14 | CC(=O)N(C)c1cnn(C(=O)N2C[C@H]3C[C@H](N(C)Cc4cc(N5CCCC5)ccc4C(F)(F)F)C[C@H]3C2)c1 [Example 142, N-methyl-N-(1-(trans-5-(methyl(5-(pyrrolidin-1-yl)-2-(trifluoromethyl)benzyl)amino)octahydrocyclopenta[c]pyrrole-2-carbonyl)-1H-pyrazol-4-yl)acetamide] | ≥ 75 | ≥ 75 |  | 
15 | CC(=O)N(C)c1cnn(C(=O)N2C[C@H]3C[C@@H](N(C)Cc4ccc(Cl)cc4)C[C@H]3C2)c1 [Example 143, N-(1-(cis-5-((4-chlorobenzyl)(methyl)amino)octahydrocyclopenta[c]pyrrole-2-carbonyl)-1H-pyrazol-4-yl)-N-methylacetamide] | ≥ 75 | ≥ 75 | 100 to 1000 | 100 to 1000
16 | CC(=O)N(C)c1cnn(C(=O)N2C[C@H]3C[C@H](N(C)Cc4cc(C(F)(F)F)ccc4N4CCCC4)C[C@H]3C2)c1 [Example 144, N-methyl-N-(1-(trans-5-(methyl(2-(pyrrolidin-1-yl)-5-(trifluoromethyl)benzyl)amino)octahydrocyclopenta[c]pyrrole-2-carbonyl)-1H-pyrazol-4-yl)acetamide] | ≥ 75 | 50 to 75 |  | 
17 | CC(=O)N(C)c1cnn(C(=O)N2C[C@H]3C[C@H](N(C)Cc4ccccc4Cl)C[C@H]3C2)c1 [Example 145, N-(1-(trans-5-((2-chlorobenzyl)(methyl)amino)octahydrocyclopenta[c]pyrrole-2-carbonyl)-1H-pyrazol-4-yl)-N-methylacetamide] | ≥ 75 | ≥ 75 | ≤ 100 | ≤ 100
18 | CC(=O)N(C)c1cnn(C(=O)N2C[C@H]3C[C@H](N(C)Cc4cc(C(F)(F)F)ccc4C(F)(F)F)C[C@H]3C2)c1 [Example 146, N-(1-(trans-5-((2,5-bis(trifluoromethyl)benzyl)(methyl)amino)octahydrocyclopenta[c]pyrrole-2-carbonyl)-1H-pyrazol-4-yl)-N-methylacetamide] | ≥ 75 | ≥ 75 |  | 
19 | CC(=O)N(C)c1cnn(C(=O)N2C[C@H]3C[C@H](N(C)Cc4cccc(Cl)c4)C[C@H]3C2)c1 [Example 147, N-(1-(trans-5-((3-chlorobenzyl)(methyl)amino)octahydrocyclopenta[c]pyrrole-2-carbonyl)-1H-pyrazol-4-yl)-N-methylacetamide] | ≥ 75 | ≥ 75 | ≤ 100 | ≤ 100
20 | CC(=O)N(C)c1cnn(C(=O)N2C[C@H]3C[C@@H](N(C)Cc4ccc(N5C6CCC5COC6)cc4C(F)(F)F)C[C@H]3C2)c1 [Example 149, N-(1-(cis-5-((4-(3-oxa-8-azabicyclo[3.2.1]octan-8-yl)-2-(trifluoromethyl)benzyl)(methyl)amino)octahydrocyclopenta[c]pyrrole-2-carbonyl)-1H-pyrazol-4-yl)-N-methylacetamide] | ≥ 75 | ≥ 75 |  | 
21 | CC(=O)N(C)c1cnn(C(=O)N2C[C@H]3C[C@@H](N(C)Cc4ccc(N5C6CCC5COC6)c(C(F)(F)F)c4)C[C@H]3C2)c1 [Example 150, N-(1-(cis-5-((4-(3-oxa-8-azabicyclo[3.2.1]octan-8-yl)-3-(trifluoromethyl)benzyl)(methyl)amino)octahydrocyclopenta[c]pyrrole-2-carbonyl)-1H-pyrazol-4-yl)-N-methylacetamide] | ≥ 75 | ≥ 75 | 100 to 1000 | ≤ 100
22 | CC(=O)N(C)c1cnn(C(=O)N2C[C@H]3C[C@@H](N(C)Cc4cc(N5C6CCC5COC6)cc(C(F)(F)F)c4)C[C@H]3C2)c1 [Example 151, N-(1-(cis-5-((3-(3-oxa-8-azabicyclo[3.2.1]octan-8-yl)-5-(trifluoromethyl)benzyl)(methyl)amino)octahydrocyclopenta[c]pyrrole-2-carbonyl)-1H-pyrazol-4-yl)-N-methylacetamide] | ≥ 75 | ≥ 75 | 100 to 1000 | 100 to 1000
23 | CC(=O)N(C)c1cnn(C(=O)N2C[C@H]3C[C@@H](N(C)Cc4ccc(N5CCCC5)cc4C(F)(F)F)C[C@H]3C2)c1 [Example 152, N-methyl-N-(1-(cis-5-(methyl(4-(pyrrolidin-1-yl)-2-(trifluoromethyl)benzyl)amino)octahydrocyclopenta[c]pyrrole-2-carbonyl)-1H-pyrazol-4-yl)acetamide] | ≥ 75 | ≥ 75 |  | 

From US10323038B2, “Pyrazole compounds and methods of making and using same” (ABIDE THERAPEUTICS, INC., priority 2015, dated 2019)
